Publication PMC9742383, “From tryptamine to the discovery of efficient multi-target directed ligands against cholinesterase-associated neurodegenerative disorders” (Frontiers in Pharmacology, 2022)

biological target: BuChE (Equus caballus, UniProt P81908); test: Ellman colorimetric assay; type: biochemical; set-up: gene BCHE; native enzyme from equine serum, purchased from Sigma-Aldrich; conditions: read-out: IC50 ± SD / BuChE ^a
Sequence (P81908 whole entry): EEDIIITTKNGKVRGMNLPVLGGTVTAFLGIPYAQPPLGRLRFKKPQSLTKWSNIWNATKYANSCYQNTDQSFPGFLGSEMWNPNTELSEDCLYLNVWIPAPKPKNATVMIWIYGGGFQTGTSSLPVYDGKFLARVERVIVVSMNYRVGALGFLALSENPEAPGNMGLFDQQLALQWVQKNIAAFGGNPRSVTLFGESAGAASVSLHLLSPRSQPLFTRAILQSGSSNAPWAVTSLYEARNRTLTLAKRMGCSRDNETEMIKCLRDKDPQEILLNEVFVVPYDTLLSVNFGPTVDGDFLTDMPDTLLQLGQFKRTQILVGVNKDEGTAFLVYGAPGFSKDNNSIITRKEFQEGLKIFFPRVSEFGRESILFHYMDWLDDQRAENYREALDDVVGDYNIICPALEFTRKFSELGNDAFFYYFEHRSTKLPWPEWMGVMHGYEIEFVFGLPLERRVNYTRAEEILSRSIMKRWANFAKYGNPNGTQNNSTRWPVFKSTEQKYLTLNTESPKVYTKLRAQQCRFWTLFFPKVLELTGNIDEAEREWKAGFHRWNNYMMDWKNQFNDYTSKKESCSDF

| Compound | IC50 [µM] |
| --- | --- |
| CCCNC(=O)Oc1ccc2[nH]cc(CCN(Cc3ccccc3)Cc3ccccc3)c2c1 [2a, 3-(2-(dibenzylamino)ethyl)-1H-indol-5-yl propylcarbamate] | 0.0332 ± 0.00499 |
| CCCCNC(=O)Oc1ccc2[nH]cc(CCN(Cc3ccccc3)Cc3ccccc3)c2c1 [2b, 3-(2-(dibenzylamino)ethyl)-1H-indol-5-yl butylcarbamate] | 0.003 ± 0.00021 |
| CCCCCCNC(=O)Oc1ccc2[nH]cc(CCN(Cc3ccccc3)Cc3ccccc3)c2c1 [2d, 3-(2-(dibenzylamino)ethyl)-1H-indol-5-yl hexylcarbamate] | 0.00147 ± 0.00015 |
| O=C(NC1CCCC1)Oc1ccc2[nH]cc(CCN(Cc3ccccc3)Cc3ccccc3)c2c1 [2g, 3-(2-(dibenzylamino)ethyl)-1H-indol-5-yl cyclopentylcarbamate] | 0.0337 ± 0.00162 |
| O=C(Nc1ccccc1)Oc1ccc2[nH]cc(CCN(Cc3ccccc3)Cc3ccccc3)c2c1 [2i, 3-(2-(dibenzylamino)ethyl)-1H-indol-5-yl phenylcarbamate] | 0.0558 ± 0.00314 |
| CCN(CC)C(=O)Oc1ccc2[nH]cc(CCN(Cc3ccccc3)Cc3ccccc3)c2c1 [2k, 3-(2-(dibenzylamino)ethyl)-1H-indol-5-yl diethylcarbamate] | 0.3209 ± 0.00206 |
| CCCN(CCC)C(=O)Oc1ccc2[nH]cc(CCN(Cc3ccccc3)Cc3ccccc3)c2c1 [2l, 3-(2-(dibenzylamino)ethyl)-1H-indol-5-yl dipropylcarbamate] | 0.0159 ± 0.00055 |
| O=C(Oc1ccc2[nH]cc(CCN(Cc3ccccc3)Cc3ccccc3)c2c1)N(c1ccccc1)c1ccccc1 [2n, 3-(2-(dibenzylamino)ethyl)-1H-indol-5-yl diphenylcarbamate] | 0.2623 ± 0.00248 |
| CON(C)C(=O)Oc1ccc2[nH]cc(CCN(Cc3ccccc3)Cc3ccccc3)c2c1 [2o, 3-(2-(dibenzylamino)ethyl)-1H-indol-5-yl methoxy(methyl)carbamate] | 0.00865 ± 0.00034 |
| O=C(Oc1ccc2[nH]cc(CCN(Cc3ccccc3)Cc3ccccc3)c2c1)N1CCCCC1 [2s, 3-(2-(dibenzylamino)ethyl)-1H-indol-5-yl piperidine-1-carboxylate] | 0.0334 ± 0.00521 |

same assay, conditions: read-out: IC50 ± SD ^a / BuChE ^a

| Compound | IC50 [µM] |
| --- | --- |
| CCCNC(=O)Oc1ccc2[nH]cc(CCNCc3ccccc3)c2c1 [3a, 3-(2-(benzylamino)ethyl)-1H-indol-5-yl propylcarbamate] | 0.0182 ± 0.00068 |
| CCCCNC(=O)Oc1ccc2[nH]cc(CCNCc3ccccc3)c2c1 [3b, 3-(2-(benzylamino)ethyl)-1H-indol-5-yl butylcarbamate] | 0.0237 ± 0.00118 |
| CCCCCCNC(=O)Oc1ccc2[nH]cc(CCNCc3ccccc3)c2c1 [3d, 3-(2-(benzylamino)ethyl)-1H-indol-5-yl hexylcarbamate] | 0.019 ± 0.00029 |
| CCCCCCCNC(=O)Oc1ccc2[nH]cc(CCNCc3ccccc3)c2c1 [3e, 3-(2-(benzylamino)ethyl)-1H-indol-5-yl heptylcarbamate] | 0.0336 ± 0.00164 |
| O=C(NC1CCCC1)Oc1ccc2[nH]cc(CCNCc3ccccc3)c2c1 [3g, 3-(2-(benzylamino)ethyl)-1H-indol-5-yl cyclopentylcarbamate] | 0.0136 ± 0.0007 |

system: not listed separately; test: in vitro; set-up: MTT cytotoxicity, absorbance at 570 nm, HT-22 mouse hippocampal neuronal cells; conditions: mouse, ht-22; read-out: IC50 ± SD / HT-22 ^a
Method: The cell lines present in this study were purchased from the China Center for Type Collection (CCTCC, China). For cytotoxicity assay, HT-22, BV2, SH-SY5Y, HepG2, and LO2 cells were incubated in 96-well plates at the density of 5 × 10³ per well. After incubation for 12 h at 37°C, the tested compounds with the required concentrations were added to the corresponding wells and continuously incubated for 24 h at 37°C. Then, the prepared MTT (3-[4,5-dimethyl-2-thiazolyl]-2,5-diphenyl-2H-tetrazolium bromide) solution was added to each well and co-incubated for another 4 h at 37°C. Then, the supernatant was removed, and 100 μl DMSO was added to each well. The OD value of each well was detected at 570 nm using a microplate reader (Bio-Rad Laboratories, CA, United States). The IC50 values were calculated using IBM SPSS Statistics 25.0 software. All experiments were performed in triplicate, and the results were shown as the mean ± SD. In order to explore the applicability of the synthesized CTDs in neurological diseases, the neuronal cytotoxicity of the synthesized compounds was evaluated on mouse hippocampal neuronal cell line HT-22. […] In view of these CTDs endowed strong inhibition efficacy on BuChE, we preliminarily evaluated their safety range by comparing their IC50 values on cytotoxicity and BuChE inhibitory activity. […] Therefore, the series of compounds with dibenzyl groups, especially compounds bearing ring carbon alkyl chains (2f-2h) and tertiary amine residues (2j-2u) with little cytotoxicity on HT-22, can be considered as potential lead building blocks for further structure optimization to develop novel effective agents against neurological diseases.

| Compound | CC50 at 24 h [µM] |
| --- | --- |
| CCCNC(=O)Oc1ccc2[nH]cc(CCN(Cc3ccccc3)Cc3ccccc3)c2c1 [2a, 3-(2-(dibenzylamino)ethyl)-1H-indol-5-yl propylcarbamate] | 51.58 ± 0.05 |
| CCCCNC(=O)Oc1ccc2[nH]cc(CCN(Cc3ccccc3)Cc3ccccc3)c2c1 [2b, 3-(2-(dibenzylamino)ethyl)-1H-indol-5-yl butylcarbamate] | 40.6 ± 1.12 |
| CCCCCCNC(=O)Oc1ccc2[nH]cc(CCN(Cc3ccccc3)Cc3ccccc3)c2c1 [2d, 3-(2-(dibenzylamino)ethyl)-1H-indol-5-yl hexylcarbamate] | 37.6 ± 1.92 |
| O=C(NC1CCCC1)Oc1ccc2[nH]cc(CCN(Cc3ccccc3)Cc3ccccc3)c2c1 [2g, 3-(2-(dibenzylamino)ethyl)-1H-indol-5-yl cyclopentylcarbamate] | 57.3 ± 4.3 |
| O=C(Nc1ccccc1)Oc1ccc2[nH]cc(CCN(Cc3ccccc3)Cc3ccccc3)c2c1 [2i, 3-(2-(dibenzylamino)ethyl)-1H-indol-5-yl phenylcarbamate] | 41.8 ± 2.31 |
| CCN(CC)C(=O)Oc1ccc2[nH]cc(CCN(Cc3ccccc3)Cc3ccccc3)c2c1 [2k, 3-(2-(dibenzylamino)ethyl)-1H-indol-5-yl diethylcarbamate] | 54.68 ± 0.42 |
| CCCN(CCC)C(=O)Oc1ccc2[nH]cc(CCN(Cc3ccccc3)Cc3ccccc3)c2c1 [2l, 3-(2-(dibenzylamino)ethyl)-1H-indol-5-yl dipropylcarbamate] | 38.6 ± 0.9 |
| O=C(Oc1ccc2[nH]cc(CCN(Cc3ccccc3)Cc3ccccc3)c2c1)N(c1ccccc1)c1ccccc1 [2n, 3-(2-(dibenzylamino)ethyl)-1H-indol-5-yl diphenylcarbamate] | > 100 |
| CON(C)C(=O)Oc1ccc2[nH]cc(CCN(Cc3ccccc3)Cc3ccccc3)c2c1 [2o, 3-(2-(dibenzylamino)ethyl)-1H-indol-5-yl methoxy(methyl)carbamate] | 72.1 ± 2.23 |
| O=C(Oc1ccc2[nH]cc(CCN(Cc3ccccc3)Cc3ccccc3)c2c1)N1CCCCC1 [2s, 3-(2-(dibenzylamino)ethyl)-1H-indol-5-yl piperidine-1-carboxylate] | 42.7 ± 2.09 |

same assay, conditions: mouse, ht-22 hippocampal neuronal cells; read-out: IC50 ± SD / HT-22 ^a

| Compound | CC50 at 24 h [µM] |
| --- | --- |
| CCCNC(=O)Oc1ccc2[nH]cc(CCNCc3ccccc3)c2c1 [3a, 3-(2-(benzylamino)ethyl)-1H-indol-5-yl propylcarbamate] | 31.3 ± 2.32 |
| CCCCNC(=O)Oc1ccc2[nH]cc(CCNCc3ccccc3)c2c1 [3b, 3-(2-(benzylamino)ethyl)-1H-indol-5-yl butylcarbamate] | 18.5 ± 0.81 |
| CCCCCCNC(=O)Oc1ccc2[nH]cc(CCNCc3ccccc3)c2c1 [3d, 3-(2-(benzylamino)ethyl)-1H-indol-5-yl hexylcarbamate] | 16.3 ± 1.19 |
| CCCCCCCNC(=O)Oc1ccc2[nH]cc(CCNCc3ccccc3)c2c1 [3e, 3-(2-(benzylamino)ethyl)-1H-indol-5-yl heptylcarbamate] | 6.49 ± 0.34 |
| O=C(NC1CCCC1)Oc1ccc2[nH]cc(CCNCc3ccccc3)c2c1 [3g, 3-(2-(benzylamino)ethyl)-1H-indol-5-yl cyclopentylcarbamate] | 18.2 ± 0.95 |

biological target: T1, AChE (Electrophorus electricus, UniProt O42275); test: Ellman colorimetric assay; type: biochemical; conditions: read-out: IC50 ± SD / AChE ^a
T1 construct: native enzyme, Type V-S lyophilized powder, Sigma-Aldrich
T1 sequence (O42275 24-633): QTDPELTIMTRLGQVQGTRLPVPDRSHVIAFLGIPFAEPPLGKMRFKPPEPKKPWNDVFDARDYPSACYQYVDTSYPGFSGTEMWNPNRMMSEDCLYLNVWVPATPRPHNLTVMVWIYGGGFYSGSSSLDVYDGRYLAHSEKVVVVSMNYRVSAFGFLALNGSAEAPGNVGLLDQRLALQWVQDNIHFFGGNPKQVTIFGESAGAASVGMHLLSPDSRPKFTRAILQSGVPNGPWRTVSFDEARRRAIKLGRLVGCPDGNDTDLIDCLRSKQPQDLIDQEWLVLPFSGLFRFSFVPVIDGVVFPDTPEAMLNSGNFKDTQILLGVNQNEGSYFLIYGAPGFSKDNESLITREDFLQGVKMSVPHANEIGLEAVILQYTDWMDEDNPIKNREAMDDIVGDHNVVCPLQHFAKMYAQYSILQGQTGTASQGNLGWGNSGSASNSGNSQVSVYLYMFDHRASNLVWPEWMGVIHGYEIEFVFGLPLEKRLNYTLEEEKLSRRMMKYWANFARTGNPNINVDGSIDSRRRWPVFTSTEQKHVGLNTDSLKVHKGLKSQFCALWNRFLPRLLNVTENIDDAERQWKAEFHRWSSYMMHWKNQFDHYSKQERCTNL

| Compound | IC50 [µM] |
| --- | --- |
| CCCNC(=O)Oc1ccc2[nH]cc(CCN(Cc3ccccc3)Cc3ccccc3)c2c1 [2a, 3-(2-(dibenzylamino)ethyl)-1H-indol-5-yl propylcarbamate] | > 100 |
| CCCCNC(=O)Oc1ccc2[nH]cc(CCN(Cc3ccccc3)Cc3ccccc3)c2c1 [2b, 3-(2-(dibenzylamino)ethyl)-1H-indol-5-yl butylcarbamate] | > 100 |
| CCCCCCNC(=O)Oc1ccc2[nH]cc(CCN(Cc3ccccc3)Cc3ccccc3)c2c1 [2d, 3-(2-(dibenzylamino)ethyl)-1H-indol-5-yl hexylcarbamate] | > 100 |
| O=C(NC1CCCC1)Oc1ccc2[nH]cc(CCN(Cc3ccccc3)Cc3ccccc3)c2c1 [2g, 3-(2-(dibenzylamino)ethyl)-1H-indol-5-yl cyclopentylcarbamate] | > 100 |
| O=C(Nc1ccccc1)Oc1ccc2[nH]cc(CCN(Cc3ccccc3)Cc3ccccc3)c2c1 [2i, 3-(2-(dibenzylamino)ethyl)-1H-indol-5-yl phenylcarbamate] | > 100 |
| CCN(CC)C(=O)Oc1ccc2[nH]cc(CCN(Cc3ccccc3)Cc3ccccc3)c2c1 [2k, 3-(2-(dibenzylamino)ethyl)-1H-indol-5-yl diethylcarbamate] | > 100 |
| CCCN(CCC)C(=O)Oc1ccc2[nH]cc(CCN(Cc3ccccc3)Cc3ccccc3)c2c1 [2l, 3-(2-(dibenzylamino)ethyl)-1H-indol-5-yl dipropylcarbamate] | > 100 |
| O=C(Oc1ccc2[nH]cc(CCN(Cc3ccccc3)Cc3ccccc3)c2c1)N(c1ccccc1)c1ccccc1 [2n, 3-(2-(dibenzylamino)ethyl)-1H-indol-5-yl diphenylcarbamate] | > 100 |
| CON(C)C(=O)Oc1ccc2[nH]cc(CCN(Cc3ccccc3)Cc3ccccc3)c2c1 [2o, 3-(2-(dibenzylamino)ethyl)-1H-indol-5-yl methoxy(methyl)carbamate] | 2.93 |
| O=C(Oc1ccc2[nH]cc(CCN(Cc3ccccc3)Cc3ccccc3)c2c1)N1CCCCC1 [2s, 3-(2-(dibenzylamino)ethyl)-1H-indol-5-yl piperidine-1-carboxylate] | > 100 |

same assay, conditions: read-out: IC50 ± SD ^a / AChE ^a

| Compound | IC50 [µM] |
| --- | --- |
| CCCNC(=O)Oc1ccc2[nH]cc(CCNCc3ccccc3)c2c1 [3a, 3-(2-(benzylamino)ethyl)-1H-indol-5-yl propylcarbamate] | 1.95 |
| CCCCNC(=O)Oc1ccc2[nH]cc(CCNCc3ccccc3)c2c1 [3b, 3-(2-(benzylamino)ethyl)-1H-indol-5-yl butylcarbamate] | 1.69 |
| CCCCCCNC(=O)Oc1ccc2[nH]cc(CCNCc3ccccc3)c2c1 [3d, 3-(2-(benzylamino)ethyl)-1H-indol-5-yl hexylcarbamate] | 2.44 |
| CCCCCCCNC(=O)Oc1ccc2[nH]cc(CCNCc3ccccc3)c2c1 [3e, 3-(2-(benzylamino)ethyl)-1H-indol-5-yl heptylcarbamate] | 1.13 |
| O=C(NC1CCCC1)Oc1ccc2[nH]cc(CCNCc3ccccc3)c2c1 [3g, 3-(2-(benzylamino)ethyl)-1H-indol-5-yl cyclopentylcarbamate] | 27.2 |

system: not listed separately; test: in vitro; set-up: species or system LO2, HepG2; MTT cytotoxicity, absorbance at 570 nm; conditions: human, sh-sy5y; read-out: ^a IC50 ± SD (μM) / SH-SY5Y
Method: The cell lines present in this study were purchased from the China Center for Type Collection (CCTCC, China). For cytotoxicity assay, HT-22, BV2, SH-SY5Y, HepG2, and LO2 cells were incubated in 96-well plates at the density of 5 × 10³ per well. After incubation for 12 h at 37°C, the tested compounds with the required concentrations were added to the corresponding wells and continuously incubated for 24 h at 37°C. Then, the prepared MTT (3-[4,5-dimethyl-2-thiazolyl]-2,5-diphenyl-2H-tetrazolium bromide) solution was added to each well and co-incubated for another 4 h at 37°C. Then, the supernatant was removed, and 100 μl DMSO was added to each well. The OD value of each well was detected at 570 nm using a microplate reader (Bio-Rad Laboratories, CA, United States). The IC50 values were calculated using IBM SPSS Statistics 25.0 software. All experiments were performed in triplicate, and the results were shown as the mean ± SD. In order to further evaluate the applicability of the compounds with dibenzyl groups for neurological diseases, we also tested the cytotoxicity of the selected compounds (2f, 2h, 2j, 2m, 2o-2r, 2t, and 2u) bearing little toxicity on HT-22 cells, microglia cell line BV2, and human neuroblastoma cell line SH-SY5Y, which are widely used in the study of neurological diseases. […] In view of some carbamate-based ChE inhibitors reported to be hepatotoxic, we further performed the preliminary evaluation of the hepatotoxicity of the selected compounds on human normal liver cell line LO2 and human hepatocellular carcinoma cell line HepG2.

| Compound | CC50 at 24 h [µM] |
| --- | --- |
| CON(C)C(=O)Oc1ccc2[nH]cc(CCN(Cc3ccccc3)Cc3ccccc3)c2c1 [2o, 3-(2-(dibenzylamino)ethyl)-1H-indol-5-yl methoxy(methyl)carbamate] | > 100 |
